Measured values published in US11420944B2, “Voltage-dependent t-type calcium channel blocker” (Nippon Chemiphar Co., Ltd., priority 2016, dated 2022).
pIC50: −log10 of the molar value. Like-named read-outs stand apart in the source and are kept apart here.

Tests used:
human Cav3.2 channels [1] = biological target: T1, human Cav3.2 channels (Homo sapiens, UniProt O95180); experiment: Intracellular calcium concentration measurement (Fluo-4 AM) in stable cells expressing human Cav3.2 channels, buffer A / buffer B; assay type: cell-based
T1 construct: expressed in transfected cells; host or cells: HEK293 cells (ATCC No. CRL-1573), plasmid pcDNA3.1(+)
T1 sequence (O95180 whole entry): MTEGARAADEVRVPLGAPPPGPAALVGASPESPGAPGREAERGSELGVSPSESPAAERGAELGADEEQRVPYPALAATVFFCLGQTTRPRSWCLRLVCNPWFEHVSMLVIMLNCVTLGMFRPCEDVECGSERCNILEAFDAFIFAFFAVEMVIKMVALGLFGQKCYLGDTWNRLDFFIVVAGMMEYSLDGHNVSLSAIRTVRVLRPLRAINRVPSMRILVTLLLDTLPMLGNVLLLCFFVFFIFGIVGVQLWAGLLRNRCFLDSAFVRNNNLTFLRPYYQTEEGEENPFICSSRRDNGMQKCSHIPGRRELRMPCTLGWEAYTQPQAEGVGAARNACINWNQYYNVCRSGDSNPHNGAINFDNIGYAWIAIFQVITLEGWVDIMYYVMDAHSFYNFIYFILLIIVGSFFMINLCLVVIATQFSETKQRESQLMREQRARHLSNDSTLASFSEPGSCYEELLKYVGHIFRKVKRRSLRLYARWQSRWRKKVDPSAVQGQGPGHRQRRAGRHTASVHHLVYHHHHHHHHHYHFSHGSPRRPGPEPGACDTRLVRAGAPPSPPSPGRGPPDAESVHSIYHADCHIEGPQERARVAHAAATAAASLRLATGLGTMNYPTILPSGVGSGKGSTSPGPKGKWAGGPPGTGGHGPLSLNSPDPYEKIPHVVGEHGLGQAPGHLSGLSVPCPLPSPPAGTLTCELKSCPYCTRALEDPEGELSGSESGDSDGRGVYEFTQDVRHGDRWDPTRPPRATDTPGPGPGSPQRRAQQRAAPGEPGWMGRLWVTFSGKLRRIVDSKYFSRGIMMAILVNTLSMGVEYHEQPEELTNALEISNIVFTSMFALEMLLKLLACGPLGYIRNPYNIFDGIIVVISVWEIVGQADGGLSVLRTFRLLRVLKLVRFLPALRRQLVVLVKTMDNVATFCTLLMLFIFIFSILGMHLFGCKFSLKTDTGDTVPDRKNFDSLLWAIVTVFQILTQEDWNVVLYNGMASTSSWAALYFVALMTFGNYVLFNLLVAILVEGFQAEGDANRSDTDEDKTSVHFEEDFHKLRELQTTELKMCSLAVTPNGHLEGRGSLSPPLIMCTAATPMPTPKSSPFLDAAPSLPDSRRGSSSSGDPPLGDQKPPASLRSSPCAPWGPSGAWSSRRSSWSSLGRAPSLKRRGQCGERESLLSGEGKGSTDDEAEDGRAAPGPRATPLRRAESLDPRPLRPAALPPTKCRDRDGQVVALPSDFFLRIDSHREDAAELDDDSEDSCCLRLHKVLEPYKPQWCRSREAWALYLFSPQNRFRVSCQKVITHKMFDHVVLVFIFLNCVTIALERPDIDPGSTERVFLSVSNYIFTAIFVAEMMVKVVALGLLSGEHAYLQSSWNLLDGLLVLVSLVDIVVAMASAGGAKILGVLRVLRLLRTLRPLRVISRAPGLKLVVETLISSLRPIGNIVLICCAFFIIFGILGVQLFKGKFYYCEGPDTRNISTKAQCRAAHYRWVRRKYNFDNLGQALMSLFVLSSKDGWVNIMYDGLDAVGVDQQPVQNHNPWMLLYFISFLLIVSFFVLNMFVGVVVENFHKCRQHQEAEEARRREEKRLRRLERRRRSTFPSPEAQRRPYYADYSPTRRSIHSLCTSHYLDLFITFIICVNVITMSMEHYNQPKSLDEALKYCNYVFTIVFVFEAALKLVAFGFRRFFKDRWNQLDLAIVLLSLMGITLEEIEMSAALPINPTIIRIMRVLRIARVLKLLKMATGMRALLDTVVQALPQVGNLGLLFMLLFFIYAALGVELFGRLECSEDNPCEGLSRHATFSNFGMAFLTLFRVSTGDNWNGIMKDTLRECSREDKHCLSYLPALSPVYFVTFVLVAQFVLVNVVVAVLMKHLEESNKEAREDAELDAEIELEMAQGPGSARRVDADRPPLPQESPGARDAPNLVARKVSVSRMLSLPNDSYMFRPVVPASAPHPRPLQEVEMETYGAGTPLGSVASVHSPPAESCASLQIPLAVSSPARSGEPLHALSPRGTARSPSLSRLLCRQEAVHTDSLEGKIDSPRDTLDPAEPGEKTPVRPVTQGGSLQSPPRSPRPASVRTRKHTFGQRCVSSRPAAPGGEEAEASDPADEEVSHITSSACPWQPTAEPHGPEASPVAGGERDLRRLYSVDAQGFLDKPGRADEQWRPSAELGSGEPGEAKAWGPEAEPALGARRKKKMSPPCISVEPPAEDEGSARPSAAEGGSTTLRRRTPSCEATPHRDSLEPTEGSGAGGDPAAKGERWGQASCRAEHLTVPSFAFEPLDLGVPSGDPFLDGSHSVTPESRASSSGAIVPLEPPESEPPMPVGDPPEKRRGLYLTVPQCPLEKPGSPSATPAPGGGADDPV
Procedure, shortened: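 State-dependent Cav3.2 inhibition compared in two buffers differing in potassium equilibrium potential (−92 vs −110 mV). Stable HEK293 line, Fluo-4 dye; compound 15 min, room temperature, dark, then KCl addition (83.8 or 91.8 mM) triggers calcium influx read 10 s; IC50 from peak increment over baseline.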

CYP3A4 = biological target: T2, CYP3A4 (Homo sapiens, UniProt P08684); experiment: Evaluation of CYP3A4 activity inhibitory action; assay type: in vitro ADME; settings: Human CYP3A4BR EasyCYP Bactosomes, 7-Benzyloxy-4-(trifluoromethyl)-coumarin
T2 construct: purchased Cypex, Ltd; host or cells: E. coli membranes (Bactosomes)
T2 sequence (P08684 whole entry): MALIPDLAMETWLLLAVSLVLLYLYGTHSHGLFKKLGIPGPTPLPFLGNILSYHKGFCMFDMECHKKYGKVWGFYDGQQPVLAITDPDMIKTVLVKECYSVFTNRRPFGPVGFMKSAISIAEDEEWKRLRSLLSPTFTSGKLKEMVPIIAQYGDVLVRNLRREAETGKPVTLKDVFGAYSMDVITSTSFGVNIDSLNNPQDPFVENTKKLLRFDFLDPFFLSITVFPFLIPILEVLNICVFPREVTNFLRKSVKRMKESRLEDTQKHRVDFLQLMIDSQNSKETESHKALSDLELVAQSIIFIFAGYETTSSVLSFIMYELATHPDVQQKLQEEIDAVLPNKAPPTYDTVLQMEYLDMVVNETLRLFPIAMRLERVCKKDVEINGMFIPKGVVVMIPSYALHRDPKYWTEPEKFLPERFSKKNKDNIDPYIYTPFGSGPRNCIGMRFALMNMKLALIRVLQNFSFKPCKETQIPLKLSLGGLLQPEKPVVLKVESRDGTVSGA
Procedure: Evaluation of CYP3A4 Activity Inhibitory Action
To a 50 mM potassium phosphate buffer solution (pH 7.4), 5 nM Human CYP3A4BR EasyCYP Bactosomes (Cypex, Ltd.), 50 μM 7-Benzyloxy-4-(trifluoromethyl)-coumarin, cofactor mix (0.0081 mM β-NADP^+, 0.4 mM G-6-P, 0.4 mM MgCl2, and 0.2 U/mL G-6-P DH(Y)), and 0.01% Pluronic F-127 were added, and the mixture was incubated for 45 minutes at 37° C. The reaction was initiated by adding the cofactor mix. After the incubation, 0.5 M Tris base/acetonitrile (20:80) was added thereto as a reaction terminating liquid, and the resulting mixture was stirred. Subsequently, the fluorescence intensity (excitation: 405 nm, emission: 535 nm) was measured. The reaction was carried out in duplicate. The results are presented as the inhibition rate at 10 μM of the test compound.

human Cav3.2 channels [2] = biological target: T1, human Cav3.2 channels; experiment: Electrophysiological evaluation, whole-cell patch-clamp with automatic patch-clamp system; assay type: cell-based; settings: 0.3 μM, holding potential −80 mV; read-out: Cav3.2 channel current inhibition ratio at 0.3 μM of test compound (holding potential −80 mV)
Procedure: Electrophysiological Evaluation
Stable cell line expressing human Cav3.2 channels, which had been produced by Test method (1) of Example 140, was seeded in a 10-cm dish using DMEM medium containing 10% FBS, and the cells were cultured for 24 hours or longer under the conditions of 37° C. and 5% CO2. The cells were detached using Accutase and were used after being suspended in ice-cold extracellular solution. The Cav3.2 channel current was measured by the Whole-cell patch-clamp method using an automatic patch-clamp system (Port-a-Patch; Nanion Technologies GmbH, EPC-10; HEKA Elektronik GmbH, Patchmaster; HEKA Elektronik GmbH) and buffers described below. Measurement of the Cav3.2 channel current was carried out at room temperature, and the measurement conditions were set as follows: holding potential: −80 mV, depolarization potential: −20 mV, depolarization time: 100 msec, and depolarization frequency: 10 sec. The Cav3.2 channel current was defined as the peak value of the inward current observed when depolarization occurred at −20 mV.
For a test compound, a DMSO solution was diluted 1,000 times with extracellular solution, and thus a solution having an intended concentration was produced. The test compound was applied using an extracellular perfusion system (Nanion Technologies GmbH) until the Cav3.2 channel current was stabilized, and five concentrations at the maximum from the low-concentration side were cumulatively applied. The inhibition ratio of the test compound was calculated from the current value immediately before the application of the test compound and the change rate of the Cav3.2 channel current after the application of the test compound (conditions for a holding potential of −80 mV: test compound concentration of 0.3 μM, conditions for a holding potential of −100 mV: test compound concentration of 3 μM).
Extracellular solution: 135 mM NaCl, 4 mM KCl, 1 mM MgCl2, 5 mM CaCl2, 5 mM D-Glucose, and 10 mM HEPES, pH 7.4
Internal solution for electrode: 10 mM NaCl, 10 mM HEPES, 50 mM CsCl, 60 mM CsF, and 20 mM EGTA, pH 7.2

[3] = Tables 2 to 6, buffer A, equilibrium potential of potassium −92 mV, read-out: Inhibitory action of buffer A (inactivated state)

Row | Structure (SMILES) | pIC50 (human Cav3.2 channels [1]; [3]) | CYP3A4 activity inhibition ratio at 10 μM of test compound (CYP3A4) | pIC50 (human Cav3.2 channels [1]; Table 1, buffer A, equilibrium potential of potassium −92 mV, read-out: Inhibitory action of buffer A (inactivated state)) | pIC50 (human Cav3.2 channels [1]; Table 1, buffer B, equilibrium potential of potassium −110 mV, read-out: Inhibitory action of buffer B (resting state or closed state)) | inhibition at 0.3 µM (human Cav3.2 channels [2])
1 | C[C@@H](NC(=O)C1CC1c1nccn1C)c1ccc(OCC(F)(F)F)s1 (mixture of isomers) [Example 20, Trans-2-(1-methyl-1H-imidazol-2-yl)-N—((R)-1-(5-(2,2,2-trifluoroethoxy)thiophen-2-yl)ethyl)cyclopropane-1-carboxamide] | 5.00 to 6.00 | 27.4% |  |  | 
2 | C[C@@H](NC(=O)C1CC1c1c[nH]c2ccccc12)c1ccc(OCC(F)(F)F)s1 (single isomer, unassigned) [Example 21A] | 6.00 to 7.00 | 16.9% |  |  | 
3 | C[C@@H](NC(=O)C1CC1c1c[nH]c2ccccc12)c1ccc(OCC(F)(F)F)s1 (single isomer, unassigned) [Example 21B] | 6.00 to 7.00 | 23.3% |  |  | 
4 | C[C@@H](NC(=O)C1CC1c1nc(-c2ccccc2)c[nH]1)c1ccc(OCC(F)(F)F)s1 (single isomer, unassigned) [Example 31A] | 6.00 to 7.00 | 7.0% |  |  | 
5 | CCn1c(C2CC2C(=O)N[C@H](C)c2ccc(OCC(F)(F)F)s2)nc2ccccc21 (single isomer, unassigned) [Example 54] | ≥ 7.00 | −1.1% |  |  | 
6 | CCN(CC)C(=O)c1ccc([C@@H](C)NC(=O)C2CC2c2nc3ccccc3[nH]2)s1 (stereo in doubt) [Example 32, Trans-5-((1R)-1-(2-(1H-benzo[d]imidazol-2-yl)cyclopropane-1-carboxamido)ethyl)-N,N-diethylthiophene-2-carboxamide] | 6.00 to 7.00 | 23.3% |  |  | 
7 | C[C@@H](NC(=O)[C@@H]1CCN(c2nc3ccccc3[nH]2)C1)c1ccc(OCC(F)(F)F)s1 [Example 12] |  | 84.4% | 6.00 to 7.00 | 5.00 to 6.00 | 
8 | C[C@@H](NC(=O)[C@@H]1CCN(CC(=O)Nc2ccccc2)C1)c1ccc(OCC(F)(F)F)s1.Cl [Example 17] |  | 31.8% |  |  | 
9 | CC(C(=O)Nc1ccccc1)N1CC[C@@H](C(=O)N[C@H](C)c2ccc(OCC(F)(F)F)s2)C1 (stereo partly drawn) [Example 24, (3R)-1-(1-oxo-1-(phenylamino)propan-2-yl)-N—((R)-1-(5-(2,2,2-trifluoroethoxy)thiophen-2-yl)ethyl)pyrrolidine-3-carboxamide] | 6.00 to 7.00 | 51.1% |  |  | 
10 | C[C@@H](NC(=O)C1CC1c1nc2ccccc2[nH]1)c1ccc(C(=O)OC(C)(C)C)s1 (stereo partly drawn) [Example 25, Trans-5-((1R)-1-(2-(1H-benzo[d]imidazol-2-yl)cyclopropane-1-carboxamido)ethyl)thiophene-2-carboxylic acid tert-butyl ester] |  | 8.7% |  |  | 
11 | C[C@@H](NC(=O)[C@H]1C[C@@H]1c1nc2ccccc2[nH]1)c1ccc(C(=O)N2CCCC2)s1 [Example 33, Trans-2-(1H-benzo[d]imidazol-2-yl)-N—((R)-1-(5-(pyrrolidine-1-carbonyl)thiophen-2-yl)ethyl)cyclopropane-1-carboxamide] | 6.00 to 7.00 | −12.8% |  |  | 
12 | C[C@@H](NC(=O)C1CC1c1ccc2ccccc2n1)c1ccc(OCC(F)(F)F)s1 (stereo partly drawn) [Example 34, Trans-2-(quinolin-2-yl)-N—((R)-1-(5-(2,2,2-trifluoroethoxy)thiophen-2-yl)ethyl)cyclopropane-1-carboxamide] |  | 19.6% |  |  | 
13 | C[C@@H](NC(=O)C1CC1c1nc2cc(Cl)ccc2[nH]1)c1ccc(OCC(F)(F)F)s1 (stereo partly drawn) [Example 53, Trans-2-(5-chloro-1H-benzo[d]imidazol-2-yl)-N—((R)-1-(5-(2,2,2-trifluoroethoxy)thiophen-2-yl)ethyl)cyclopropane-1-carboxamide] |  | 3.0% |  |  | 
14 | CCn1c(C2CC2C(=O)N[C@H](C)c2cnc(OCC(F)(F)F)s2)nc2ccccc21 (stereo partly drawn) [Example 57, Trans-2-(1-ethyl-1H-benzo[d]imidazol-2-yl)-N—((R)-1-(2-(2,2,2-trifluoroethoxy)thiazol-5-yl)ethyl)cyclopropane-1-carboxamide] |  | −1.4% |  |  | 
15 | C[C@@H](NC(=O)[C@H]1C[C@@H]1c1nc2ccccc2[nH]1)c1ccc2cc[nH]c2c1 [Example 58, (1S,2S)—N—((R)-1-(1H-indol-6-yl)ethyl)-2-(1H-benzo[d]imidazol-2-yl)cyclopropane-1-carboxamide] | 6.00 to 7.00 | 53.5% |  |  | 
16 | CCn1c([C@H]2C[C@@H]2C(=O)N[C@H](C)c2cc3cc(F)ccc3o2)nc2ccccc21 [Example 102, (1S,2S)-2-(1-ethyl-1H-benzo[d]imidazol-2-yl)-N—((R)-1-(5-fluorobenzofuran-2-yl)ethyl)cyclopropane-1-carboxamide] | ≥ 7.00 |  |  |  | 74%
17 | CC(NC(=O)[C@H]1C[C@@H]1c1nc2ccccc2[nH]1)c1nc2cc(F)ccc2s1 (stereo partly drawn) [Example 104, (1S,2S)-2-(1H-benzo[d]imidazol-2-yl)-N-(1-(5-fluorobenzo[d]thiazol-2-yl)ethyl)cyclopropane-1-carboxamide] | ≥ 7.00 |  |  |  | 52%
18 | C[C@@H](NC(=O)[C@H]1C[C@@H]1c1nc2ccccc2[nH]1)c1cc2cc(C(F)(F)F)ccc2o1 [Example 109, (1S,2S)-2-(1H-benzo[d]imidazol-2-yl)-N—((R)-1-(5-(trifluoromethyl)benzofuran-2-yl)ethyl)cyclopropane-1-carboxamide] | 6.00 to 7.00 | 24.1% |  |  | 
19 | C[C@@H](NC(=O)[C@H]1C[C@@H]1c1nc2ccccc2[nH]1)c1cc2ccc(C(F)(F)F)cc2o1 [Example 123, (1S,2S)-2-(1H-benzo[d]imidazol-2-yl)-N—((R)-1-(6-(trifluoromethyl)benzofuran-2-yl)ethyl)cyclopropane-1-carboxamide] | ≥ 7.00 | 11.7% |  |  | 
20 | CC(C)[C@@H](NC(=O)[C@H]1C[C@@H]1c1nc2ccccc2[nH]1)c1cc2ccc(F)cc2o1 [Example 124, (1S,2S)-2-(1H-benzo[d]imidazol-2-yl)-N—((R)-1-(6-fluorobenzofuran-2-yl)-2-methylpropyl)cyclopropane-1-carboxamide] | ≥ 7.00 | 28.6% |  |  | 
21 | C[C@@H](NC(=O)[C@H]1C[C@@H]1c1nc2cc(F)ccc2[nH]1)c1cc2cc(F)ccc2o1 [Example 125, (1S,2S)-2-(5-fluoro-1H-benzo[d]imidazol-2-yl)-N—((R)-1-(5-fluorobenzofuran-2-yl)ethyl)cyclopropane-1-carboxamide] | ≥ 7.00 | 25.0% |  |  | 
22 | C[C@H](c1cc2ccc(F)cc2o1)N(C)C(=O)[C@H]1C[C@@H]1c1nc2ccccc2[nH]1 [Example 129, (1S,2S)-2-(1H-benzo[d]imidazol-2-yl)-N—((R)-1-(6-fluorobenzofuran-2-yl)ethyl)-N-methylcyclopropane-1-carboxamide] | 6.00 to 7.00 | 56.0% |  |  | 
23 | C[C@@H](NC(=O)Cc1ccc(C2CC2)cc1)c1ccc(OCC(F)(F)F)cn1 [TTA-A2, reference compound] |  | 55.7% |  |  | 
